# Test results as given in ChEMBL document CHEMBL1121589, “Synthesis and biological activities of 5-(hydroxymethyl, azidomethyl, or aminomethyl)-2'-deoxyuridine and related 5'-substituted analogues” (J Med Chem, 1980).
# How the values were obtained:
# Assay type in all cases: functional
# L1210 [1] = assay: Compound tested for inhibition of the replication of L1210 cells in cell culture; details: Mus musculus, read-out: ED50 (the source's name)
# L1210 [2] = assay: Compound tested for inhibition of the replication of L1210 cells in cell culture at 200 uM; details: Mus musculus
# Human alphaherpesvirus 1 [3] = assay: Antiviral activity against herpes simplex virus type I was measured at 200 uM concentration.
# Human alphaherpesvirus 1 [4] = assay: Kinetic inhibition constant against herpes simplex virus type I pyrimidine deoxyribonucleoside kinase was measured
# Human alphaherpesvirus 1 [5] = assay: Antiviral activity against herpes simplex virus type I was measured at 400 uM concentration.
# Human alphaherpesvirus 1 [6] = assay: Antiviral activity against herpes simplex virus type I was measured at 5 uM concentration.
# [7] = Inhibitory activity against growth of sarcoma 180 cells at 1 uM; details: Mus musculus, read-out: ED50 (the source's name)
# L1210 [8] = assay: Compound tested for inhibition of the replication of L1210 cells in cell culture at 7 uM; details: Mus musculus
Structure (SMILES),Control (Human alphaherpesvirus 1 [3]) [%],Ki (Human alphaherpesvirus 1 [4]) [µM],Control (Human alphaherpesvirus 1 [5]) [%],also measured
[N-]=[N+]=NCc1cn([C@H]2C[C@H](O)[C@@H](CO)O2)c(=O)[nH]c1=O,0.5,0.8,–,EC50 (L1210 [1]): 90 µM; inhibition at 200 µM (L1210 [2]): 96%
NC[C@H]1O[C@@H](n2cc(CO)c(=O)[nH]c2=O)C[C@@H]1O,–,530,100,–
[N-]=[N+]=NCc1cn([C@H]2C[C@H](O)[C@@H](CN=[N+]=[N-])O2)c(=O)[nH]c1=O,–,62,100,–
[N-]=[N+]=NC[C@H]1O[C@@H](n2cc(CO)c(=O)[nH]c2=O)C[C@@H]1O,100,31,–,–
O=c1[nH]c(=O)n([C@H]2C[C@H](O)[C@@H](CO)O2)cc1I [IDOXURIDINE],–,0.4,–,Control (Human alphaherpesvirus 1 [6]): 2%
NCc1cn([C@H]2C[C@H](O)[C@@H](CO)O2)c(=O)[nH]c1=O,–,36,100,EC50 [7]: 0.16 µM; inhibition at 7 µM (L1210 [8]): 93%; EC50 (L1210 [1]): 2 µM
NCc1cn([C@H]2C[C@H](O)[C@@H](CN)O2)c(=O)[nH]c1=O,–,> 500,100,–
O=c1[nH]c(=O)n([C@H]2C[C@H](O)[C@@H](CO)O2)cc1CO,0.05,3.5,–,–
